Three compounds from patent publication US20250177430A1, “Compositions Comprising NAD+ and Associated Methods of Treatment” (priority 2022, published 2025) can be followed below.

The subject of series [1] is opiate withdrawal symptoms. Description: Treatment of opiate/heroin withdrawal patients, delivery by SphenoCath to the sphenopalatine foramen. The class given is in vivo, human.
Text: A device called the SphenoCath has been used to administer medication to the sphenopalatine foramen. The SphenoCath is a curved flexible catheter with a semi-rigid retractable sheath overlaying the catheter attached to a syringe. The SphenoCath is inserted through the nostril, until the tip of the SphenoCath reaches the anterior roof of the nasal cavity. The sheath of the SphenoCath is retracted allowing the curved inner catheter to drop over the anterior aspect of the middle turbinate. With the head correctly positioned medication is reliably dispensed to the area of the membrane covering the sphenopalatine foramen, and then through absorption into the pterygopalatine fossa and the nerves contained therein.
At the eleventh treatment dexamethasone was added to the combination. […] The treatment including dexamethasone was repeated 2 more times.
Series [2] deals with migraine and facial pain. Particulars: through the sphenopalatine foramen into the pterygopalatine fossa; inventor's patients.
Series [3] relates to anxiety and depression. Description: Treatment of anxiety and depression patients, delivery by SphenoCath, subjective and family reports. The class given is in vivo, human. The conditions noted are these: Patient 2; single IV treatment, about 30 mg.
Experimental: Patient continued treatment over the course of a six-month period on an as-needed basis, which ranged from twice a week to every other month.
Inventor and patient decided to begin with the fairly typical six treatment induction phase used by IV ketamine clinics, but deliver it using the SphenoCath to the sphenopalatine foramen.
The fourth treatment was 2 ml of the combination with concentrations of 80 mg/ml NAD+, 12.5 mg/ml ketamine, and 5 mg/ml. […] Several of the treatments included a rotation of the head. For example, the combination was administered to the Patient and the head was rotated 30 degrees to the right for 5 minutes, then 30 degrees to the left for 5 minutes and then neutral for 5 minutes. Other times the head was rotated to the right at 30 degrees for 5 minutes, then 30 degrees to the left for 5 minutes and then neutral for 5 minutes.
Patient 5 completed the GAD 7 and PHQ 9 screening tools before treatment and two weeks after completion of the series. […] Patient returned for “booster” treatments four months later. […] The treatment regime also included 30-degree rotation to the right for 5 minutes, then 30-degree rotation to the left for 5 minutes, finally neutral for 5 minutes.
The first treatment was 1.8 ml of the combination with concentrations of 55 mg/ml NAD+, 14 mg/ml ketamine, 3 mg/ml. […]
For series [4], the system named is dissociative experience and discomfort. Description: Tolerability and dissociative effects in treated patients. The text has this: The individual components of the composition can be administered individually.

Take `CCN(CC)CC(=O)Nc1c(C)cccc1C` [lidocaine]: in series [1] (person, SphenoCath, treated twice 48 hours apart), the opiate withdrawal symptoms entry was “noticeably improved”. Further, the “need for buprenorphine during withdrawal” value in series [1] (person, buprenorphine was necessary for previous detox episodes) is “able to go through withdrawal without the use bupenophrine”. Moreover, the “treatment success in chronic/acute migraine, cluster headache, trigeminal and postherpetic neuralgia, post-concussion headache” value in series [2] was “successful in most cases”.

For `CNC1(c2ccccc2Cl)CCCCC1=O` (centres unmarked) [ketamine], the effect on mood entry in series [3] is given as “about the same as the intranasal treatments”. Further, the “patient experience with ketamine alone” value in series [4] (IV and intranasal, compared with mixture of NAD+, lidocaine and ketamine) is “more intense and dissociative experience”. Further, the “patient experience of IV ketamine” value in series [4] (Patient 2, IV at a ketamine clinic, stopped after about 30 mg) was “very dissociative and unpleasant experience”. Also, the “time until patient felt fine after discontinuation” value in series [4] (Patient 2, single IV treatment, about 30 mg) is 30 to 45 min. In addition, the “patient state after ketamine alone” value in series [4] (Patient 4, 15 minutes after intranasal delivery to sphenopalatine foramen, slightly lower dose than in the combined treatment) was “very agitated and uncomfortable”.

In the case of `NC(=O)c1ccc[n+]([C@@H]2O[C@H](COP(=O)([O-])OP(=O)(O)OC[C@H]3O[C@@H](n4cnc5c(N)ncnc54)[C@H](O)[C@@H]3O)[C@@H](O)[C@H]2O)c1` [NAD+], in series [1] (added to lidocaine, general observation), the “effect of adding NAD+ on chemical dependency (withdrawal symptoms and cravings)” value is listed as “significantly enhanced the effect on chemical dependency”. In series [4] (NAD+ administered individually), the “patient experience on receiving the component individually” value was “less pleasant and can lead to discomfort”. Besides, the “effect on dissociative effects of the NMDA receptor antagonist” value in series [4] (NAD+ in composition with lidocaine and ketamine) is “significantly diminishes the dissociative effects”.
